Data from patent US7173133B2, “Diaza-spiropiperidine derivatives” (Hoffmann-La Roche Inc., priority 2004, dated 2007).

Molecular target: T1, mGlyT-1b (Mus musculus, UniProt P28571)
T1 sequence (P28571 1-651 isoform P28571-2): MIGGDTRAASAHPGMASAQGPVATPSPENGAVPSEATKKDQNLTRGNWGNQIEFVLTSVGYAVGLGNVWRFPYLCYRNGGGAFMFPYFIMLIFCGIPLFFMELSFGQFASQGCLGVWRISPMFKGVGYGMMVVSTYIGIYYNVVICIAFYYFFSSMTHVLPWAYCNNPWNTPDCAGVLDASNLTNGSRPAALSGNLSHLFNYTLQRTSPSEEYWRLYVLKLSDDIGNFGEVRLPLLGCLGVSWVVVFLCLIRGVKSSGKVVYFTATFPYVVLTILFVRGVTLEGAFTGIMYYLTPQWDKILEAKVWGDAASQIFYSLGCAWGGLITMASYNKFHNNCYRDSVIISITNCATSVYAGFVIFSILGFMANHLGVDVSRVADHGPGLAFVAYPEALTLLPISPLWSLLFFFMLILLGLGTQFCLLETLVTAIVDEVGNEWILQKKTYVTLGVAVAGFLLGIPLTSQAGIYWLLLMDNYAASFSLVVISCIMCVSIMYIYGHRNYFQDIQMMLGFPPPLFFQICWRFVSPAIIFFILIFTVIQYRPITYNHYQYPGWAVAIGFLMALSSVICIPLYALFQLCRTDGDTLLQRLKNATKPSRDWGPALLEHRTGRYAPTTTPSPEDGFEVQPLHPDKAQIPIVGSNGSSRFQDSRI
Assay: Glycine uptake inhibition assay (mGlyT-1b)
Assay type: cell-based
Settings: [3H]-glycine uptake in Flp-in-CHO cells transfected with mGlyT-1b cDNA; values of some enantiomers
Procedure: DMEM complete medium: Nutrient mixture F-12 (Gibco Life-technologies), fetal bovine serum (FBS) 5%, (Gibco life technologies), Penicillin/Streptomycin1% (Gibco life technologies), Hygromycin 0.6 mg/ml (Gibco life technologies), Glutamine 1 mM Gibco life technologies).
Uptake buffer (UB): 150 mM NaCl, 10 mM Hepes-Tris, pH 7.4, 1 mM CaCl2, 2.5 mM KCl, 2.5 mM MgSO4, 10 mM (+) D-glucose.
Flp-in™-CHO (Invitrogen Cat n° R758–07) cells stably transfected with mGlyT1b cDNA.
Glycine Uptake Inhibition Assay (mGlyT-1b)
On day 1 mammalian cells, (Flp-in™-CHO), transfected with mGlyT-1b cDNA, were plated at the density of 40,000 cells/well in complete F-12 medium, without hygromycin in. 96-well culture plates. On day 2, the medium was aspirated and the cells were washed twice with uptake buffer (UB). The cells were then incubated for 20 min at 22° C. with either (i) no potential competitor, (ii) 10 mM non-radioactive glycine, (iii) a concentration of a potential inhibitor. […] A solution was then immediately added containing [^3H]-glycine 60 nM (11–16 Ci/mmol) and 25 μM non-radioactive glycine. The plates were incubated with gentle shaking and the reaction was stopped by aspiration of the mixture and washing (three times) with ice-cold UB. The cells were lysed with scintillation liquid, shaken 3 hours and the radioactivity in the cells was counted using a scintillation counter.

| Compound | IC50 [nM] |
| --- | --- |
| O=C1NCC(c2ccc(F)cc2)C12CCN(C1CCCCC1(O)c1cccc(Cl)c1)CC2 (centres unmarked) [Example 17, 8-[2-(3-Chloro-phenyl)-2-hydroxy-cyclohexyl]-4-(4-fluoro-phenyl)-2,8-diaza-spiro[4.5]decan-1-one] | 73 |
| O=C1NCC(c2ccccc2)C12CCN([C@@H]1CCCC[C@@H]1c1ccc(F)cc1)CC2 (mixture of isomers) [Example 6, cis-rac-8-[2-(4-Fluoro-phenyl)-cyclohexyl]-4-phenyl-2,8-diaza-spiro[4.5]decan-1-one] | 48 |
| O=C1NCC(c2ccccc2)C12CCN([C@@H]1CCCC[C@@H]1c1ccccc1)CC2 (mixture of isomers) [Example 1, cis-rac-4-Phenyl-8-(2-phenyl-cyclohexyl)-2,8-diaza-spiro[4.5]decan-1-one] | 61 |
| Cc1ccc([C@H]2CCCC[C@H]2N2CCC3(CC2)C(=O)NCC3c2ccccc2)cc1 (mixture of isomers) [Example 2, Cis-rac-4-Phenyl-8-(2-p-tolyl-cyclohexyl)-2,8-diaza-spiro[4.5]decan-1-one] | 105 |
| O=C1NCC(c2ccc(F)cc2)C12CCN([C@@H]1CCCC[C@@H]1c1ccc(C(F)(F)F)cc1)CC2 (mixture of isomers) [Example 10, cis-rac-4-(4-Fluoro-phenyl)-8-[2-(4-trifluoromethyl-phenyl)-cyclohexyl]-2,8-diaza-spiro[4.5]decan-1-one] | 91 |

More lines, in order of falling IC50, values ahead:

| IC50 [nM] | Compound |
| --- | --- |
| 91 | O=C1NCC(c2ccc(F)cc2)C12CCN(C1COCCC1(O)c1ccccc1)CC2 (stereo not drawn) [Example 29, 4-(4-Fluoro-phenyl)-8-trans-(4-hydroxy-4-phenyl-tetrahydro-pyran-3-yl)-2,8-diaza-spiro[4.5]decan-1-one] |
| 70 | O=C1NCC(c2ccccc2)C12CCN(C1CCCCC1(O)c1ccc(F)cc1)CC2 (centres unmarked) [Example 11, 8-[2-(4-Fluoro-phenyl)-2-hydroxy-cyclohexyl]-4-phenyl-2,8-diaza-spiro[4.5]decan-1-one] |
| 69 | O=C1NCC(c2ccc(F)cc2)C12CCN(C1CCCCC1(O)c1ccccc1F)CC2 (centres unmarked) [Example 16, 4-(4-Fluoro-phenyl)-8-[2-(2-fluoro-phenyl)-2-hydroxy-cyclohexyl]-2,8-diaza-spiro[4.5]decan-1-one] |
